# Measured values as given in patent US8987445B2, “Sulfonamide compounds having TRPM8 antagonistic activity” (Mitsubishi Tanabe Pharma Corporation, priority 2011, dated 2015).
# Molecular target: TRPM8 (Rattus norvegicus (Rat), UniProt Q8R455)
# Assay: In vivo TRPM8 antagonistic assay in rats (menthol-induced wet-dog shakes)
# Conditions: SD male rats; 3 mg/kg po 1 hour prior to menthol 50 mg/kg ip; WDS counted for 5 min
# Experimental: The antagonistic activity of compounds was assessed in the “wet-dog” shakes (WDS) model in rats. […] Pretreatment of the rats with a TRPM8 antagonist prior to menthol administration inhibits the observed shaking behavior.
# To assess the ability of a TRPM8 antagonist to prevent menthol induced shaking behavior in Sprague Dawley (SD) male rats, test compounds (3 mg/kg, po, in 0.5% methyl cellulose; N=3-4/group) were administered 1 hour prior to menthol challenge (50 mg/kg, ip, in 10% Macrogol 15 Hydroxystearate/saline). Spontaneous WDS were counted for 5 min post menthol dosing. Inhibition of the spontaneous WDS behavior relative to vehicle pretreatment is expressed as percent inhibition, calculated as follows: % Inhibition=[1−(treatment WDS count/vehicle WDS count)]×100.
# Chain of TRPM8 (Q8R455 whole entry): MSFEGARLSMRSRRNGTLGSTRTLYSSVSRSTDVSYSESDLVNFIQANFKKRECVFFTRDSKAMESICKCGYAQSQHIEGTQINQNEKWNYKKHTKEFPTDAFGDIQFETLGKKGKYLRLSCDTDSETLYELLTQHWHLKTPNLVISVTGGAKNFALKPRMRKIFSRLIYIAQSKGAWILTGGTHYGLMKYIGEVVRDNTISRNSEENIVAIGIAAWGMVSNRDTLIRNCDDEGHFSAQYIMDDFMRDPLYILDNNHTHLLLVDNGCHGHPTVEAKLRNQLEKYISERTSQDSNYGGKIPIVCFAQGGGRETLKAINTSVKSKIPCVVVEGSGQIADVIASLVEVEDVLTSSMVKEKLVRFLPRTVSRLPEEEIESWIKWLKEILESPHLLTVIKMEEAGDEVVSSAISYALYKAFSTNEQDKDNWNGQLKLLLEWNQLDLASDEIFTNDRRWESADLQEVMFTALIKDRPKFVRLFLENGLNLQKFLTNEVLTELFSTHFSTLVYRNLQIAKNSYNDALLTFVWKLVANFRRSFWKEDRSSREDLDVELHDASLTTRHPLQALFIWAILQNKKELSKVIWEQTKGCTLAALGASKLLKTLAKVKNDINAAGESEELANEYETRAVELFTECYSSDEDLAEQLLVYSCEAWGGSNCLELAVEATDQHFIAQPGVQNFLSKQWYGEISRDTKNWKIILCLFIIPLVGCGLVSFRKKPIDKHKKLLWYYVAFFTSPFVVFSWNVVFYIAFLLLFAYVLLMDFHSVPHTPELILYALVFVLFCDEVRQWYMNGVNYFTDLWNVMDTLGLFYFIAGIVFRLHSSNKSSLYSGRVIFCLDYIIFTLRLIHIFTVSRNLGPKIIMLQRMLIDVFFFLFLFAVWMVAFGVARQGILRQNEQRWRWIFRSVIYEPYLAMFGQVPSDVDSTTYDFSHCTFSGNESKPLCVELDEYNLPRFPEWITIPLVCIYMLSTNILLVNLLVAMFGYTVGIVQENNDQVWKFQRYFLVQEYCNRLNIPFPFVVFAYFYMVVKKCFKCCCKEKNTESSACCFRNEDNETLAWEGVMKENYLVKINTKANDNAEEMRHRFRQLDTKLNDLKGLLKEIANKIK
row,Structure (SMILES),TRPM8 antagonistic assay (% Inhibition @ 3 mg/kg)
1,"O=C(O)c1ccc(S(=O)(=O)N(Cc2ccc(OC(F)(F)F)cc2)c2ncc3ccccc3c2C(F)(F)F)cc1 [Example 106, 4-({[4-(trifluoromethoxy)benzyl][4-(trifluoromethyl)isoquinolin-3-yl]amino}sulfonyl)benzoic acid]",92.7%
2,COc1c(N(Cc2ccc(OC(F)(F)F)cc2)S(=O)(=O)c2ccc(C(=O)O)cc2)ncc2ccccc12 [Example 149],98.8%
3,O=C(O)c1ccc(S(=O)(=O)N(c2ncc3ccccc3c2C2CC2)C2CCc3cc(OC(F)(F)F)ccc32)cc1 (stereo not drawn) [Example 186],83.5%
4,CC(C)c1c(N(Cc2ccc(OC(F)(F)F)cc2)S(=O)(=O)c2ccc(C(=O)O)cc2)ncc2ccccc12 [Example 227],72.5%

# Molecular target: human TRPM8 (Homo sapiens (Human), UniProt Q7Z2W7)
# Assay: TRPM8 inhibition assay (menthol-induced calcium influx, FDSS)
# Type: cell-based
# Conditions: HEK293 cells stably expressing human TRPM8; 100 μM menthol; Fura-2AM Ca2+ signal; read-out: TRPM8 Blocking Test (IC50)
# Experimental: The functional activity of compounds was determined by measuring changes in intracellular calcium concentration using a Ca^2+ sensitive fluorescent dye. The changes in fluorescent signal were monitored by the cell imaging technology by Hamamatsu Photonics's Functional Drug Screening System (FDSS). […] HEK293 cells stably expressing human TRPM8 were grown in flasks. On assay day, the culture medium was removed, and cells were washed with phosphate-buffered saline (PBS) and harvested with PBS containing 2 mM ethylenediaminetetraacetic acid, disodium salt (EDTA, 2Na). […] Subsequently, suspended 20,000 to 50,000 cells per well were incubated with test compound (at varying concentrations) in each well for 20 min at 37° C. Changes in intracellular Ca^2+ evoked by 100 μM menthol were measured for 2 min using FDSS. IC50 vales were determined from four-point concentration-response studies. Curves were generated using the average of quadruplicate wells for each data point.
# Chain of human TRPM8 (Q7Z2W7 whole entry): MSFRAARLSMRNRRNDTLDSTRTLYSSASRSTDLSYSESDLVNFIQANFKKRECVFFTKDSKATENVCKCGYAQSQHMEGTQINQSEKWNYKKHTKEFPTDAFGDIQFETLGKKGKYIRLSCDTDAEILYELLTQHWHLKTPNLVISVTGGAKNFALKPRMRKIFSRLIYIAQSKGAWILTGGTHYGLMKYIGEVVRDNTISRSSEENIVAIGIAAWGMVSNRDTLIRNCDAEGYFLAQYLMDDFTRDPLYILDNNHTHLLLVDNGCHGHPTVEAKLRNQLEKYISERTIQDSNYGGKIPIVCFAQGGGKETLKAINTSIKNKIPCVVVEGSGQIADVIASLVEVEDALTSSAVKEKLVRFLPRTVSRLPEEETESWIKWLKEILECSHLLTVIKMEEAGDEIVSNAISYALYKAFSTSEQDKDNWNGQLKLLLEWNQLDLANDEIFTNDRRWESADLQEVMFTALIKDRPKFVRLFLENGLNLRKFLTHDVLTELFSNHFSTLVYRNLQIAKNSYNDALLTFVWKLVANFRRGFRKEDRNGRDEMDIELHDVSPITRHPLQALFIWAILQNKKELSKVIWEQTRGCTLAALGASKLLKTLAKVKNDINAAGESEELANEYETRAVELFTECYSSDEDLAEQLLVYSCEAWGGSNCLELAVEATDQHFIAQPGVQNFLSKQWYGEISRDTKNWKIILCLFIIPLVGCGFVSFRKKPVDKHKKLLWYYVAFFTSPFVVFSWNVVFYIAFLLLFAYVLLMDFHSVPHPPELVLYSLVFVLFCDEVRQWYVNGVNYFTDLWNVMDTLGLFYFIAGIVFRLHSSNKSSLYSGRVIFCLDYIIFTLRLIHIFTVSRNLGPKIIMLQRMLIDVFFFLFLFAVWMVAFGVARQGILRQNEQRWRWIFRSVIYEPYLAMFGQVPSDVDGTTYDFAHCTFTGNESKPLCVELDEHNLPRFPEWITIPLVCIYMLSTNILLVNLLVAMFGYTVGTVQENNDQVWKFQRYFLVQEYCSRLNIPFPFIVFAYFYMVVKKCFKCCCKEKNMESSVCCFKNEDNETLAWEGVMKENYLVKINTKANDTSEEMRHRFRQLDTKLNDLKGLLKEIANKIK
row,Structure (SMILES),IC50
1,"O=C(O)c1ccc(S(=O)(=O)N(Cc2ccc(OC(F)(F)F)cc2)c2ncc3ccccc3c2C(F)(F)F)cc1 [Example 106, 4-({[4-(trifluoromethoxy)benzyl][4-(trifluoromethyl)isoquinolin-3-yl]amino}sulfonyl)benzoic acid]",2 nM
2,COc1c(N(Cc2ccc(OC(F)(F)F)cc2)S(=O)(=O)c2ccc(C(=O)O)cc2)ncc2ccccc12 [Example 149],3.9 nM
3,O=C(O)c1ccc(S(=O)(=O)N(c2ncc3ccccc3c2C2CC2)C2CCc3cc(OC(F)(F)F)ccc32)cc1 (stereo not drawn) [Example 186],4.3 nM
4,O=C(O)c1ccc(S(=O)(=O)N(Cc2ccc(OC(F)(F)F)cc2)c2cc3ccccc3c(C3CC3)n2)cc1 [Example 216],66 nM
5,O=C(O)c1ccc(S(=O)(=O)N(Cc2ccc(OC(F)(F)F)cc2)c2cc3c(C4CC4)cccc3cn2)cc1 [Example 217],239 nM
6,COCc1nc(N(Cc2ccc(OC(F)(F)F)cc2)S(=O)(=O)c2ccc(C(=O)O)cc2)c(C)c2ccccc12 [Example 218],21 nM
7,COC(C)(c1ccc(CN(c2ncc3ccccc3c2C)S(=O)(=O)c2ccc(C(=O)O)cc2)cc1F)C(F)(F)F (stereo not drawn) [Example 219],2.6 nM
8,CCOC(C)(c1ccc(CN(c2ncc3ccccc3c2C)S(=O)(=O)c2ccc(C(=O)O)cc2)cc1F)C(F)(F)F (stereo not drawn) [Example 220],5 nM
9,COC(C)(c1ccc(CN(c2ncc3ccccc3c2C)S(=O)(=O)c2ccc(C(=O)O)cc2)cc1Cl)C(F)(F)F (stereo not drawn) [Example 222],1.6 nM
10,COC1(C(F)(F)F)CCc2cc(CN(c3ncc4ccccc4c3C)S(=O)(=O)c3ccc(C(=O)O)cc3)ccc21 (stereo not drawn) [Example 223],3.5 nM
11,COC(C)(c1ccc(CN(c2ncc3ccccc3c2C)S(=O)(=O)c2ccc(C(=O)O)cc2)cc1)C(F)(F)C(F)(F)F (stereo not drawn) [Example 224],5.9 nM
12,Cc1c(N(Cc2ccc(OC(F)(F)F)cc2)S(=O)(=O)c2ccc(C(=O)O)cc2)nc(C(C)C)c2ccccc12 [Example 225],2.8 nM
13,Cc1c(N(Cc2ccc(OC(F)(F)F)cc2)S(=O)(=O)c2ccc(C(=O)O)cc2)nc(C2CCCC2)c2ccccc12 [Example 226],9.2 nM
14,CC(C)c1c(N(Cc2ccc(OC(F)(F)F)cc2)S(=O)(=O)c2ccc(C(=O)O)cc2)ncc2ccccc12 [Example 227],5.6 nM
15,CCOc1nc(N(Cc2ccc(OC(F)(F)F)cc2)S(=O)(=O)c2ccc(C(=O)O)cc2)c(C)c2ccccc12 [Example 228],7.2 nM
16,COc1nc(N(Cc2ccc(OC(F)(F)F)cc2)S(=O)(=O)c2ccc(C(=O)O)cc2)c(C)c2cccc(C)c12 [Example 229],44 nM
17,Cc1c(N(Cc2ccc(OC(F)(F)F)cc2)S(=O)(=O)c2ccc(C(=O)O)cc2)ncc2cccc(Cl)c12 [Example 230],44 nM
18,CC(C)c1nc(N(Cc2ccc(OC(F)(F)F)cc2)S(=O)(=O)c2ccc(C(=O)O)cc2)c(C2CC2)c2ccccc12 [Example 231],6.9 nM
19,O=C(O)c1ccc(S(=O)(=O)N(Cc2ccc(OC(F)(F)F)cc2)c2nc(C3CC3)c3ccccc3c2C2CC2)cc1 [Example 232],10 nM
20,Cc1c(N(Cc2ccc3[nH]cc(Cl)c3c2)S(=O)(=O)c2ccc(C(=O)O)cc2)ncc2ccccc12 [Example 236],522 nM
21,Cc1c(N(Cc2ccc3c(c2)c(Cl)cn3C)S(=O)(=O)c2ccc(C(=O)O)cc2)ncc2ccccc12 [Example 237],12 nM
22,CNC(=O)c1ccc(S(=O)(=O)N(Cc2ccc(OC(F)(F)F)cc2)c2ncc3ccccc3c2C)cc1 [Example 238],103 nM
23,Cc1c(N(Cc2ccc(OC(F)(F)F)cc2)S(=O)(=O)c2ccc(C(=O)NC#N)cc2)ncc2ccccc12 [Example 239],14 nM
24,CCONC(=O)c1ccc(S(=O)(=O)N(Cc2ccc(OC(F)(F)F)cc2)c2ncc3ccccc3c2C)cc1 [Example 240],18 nM
25,NC(=O)c1ccc(S(=O)(=O)N(Cc2ccc(OC(F)(F)F)cc2)c2ncc3ccccc3c2C2CC2)cc1 [Example 241],8.5 nM
26,NC(=O)c1ccc(S(=O)(=O)N(Cc2ccc(OC(F)(F)F)cc2)c2ncc3ccccc3c2C(F)(F)F)cc1 [Example 242],10 nM
